In patent publication US6790971B1, “19-Nor-steroids” (Aventis Pharma S.A., priority 1989, dated 2004):

How the values were obtained:
[1] = molecular target: T1, Androgen Receptor of Rat's Prostate (Rattus norvegicus, UniProt P15207); assay: Relative affinity of the bond, androgen receptor (tritiated testosterone displacement); assay type: binding; conditions: for Relative affinity of the bond (RAB), Androgen, 0.5 H: incubation 0.5 H at 0° C.; for Relative affinity of the bond (RAB), Androgen, 0.5 H / Relative affinity of the bond (RAB), Androgen, 25 H: RAB=100(CH)/(CX); for Relative affinity of the bond (RAB), Androgen, 25 H: incubation 25 H at 0° C.
T1 construct: Their prostates were removed, weighed and homogenized at 0° C; from tissue; host or cells: prostate cytosol (105,000 g supernatant) of castrated male Sprague-Dawley rats
T1 sequence (P15207 1-902): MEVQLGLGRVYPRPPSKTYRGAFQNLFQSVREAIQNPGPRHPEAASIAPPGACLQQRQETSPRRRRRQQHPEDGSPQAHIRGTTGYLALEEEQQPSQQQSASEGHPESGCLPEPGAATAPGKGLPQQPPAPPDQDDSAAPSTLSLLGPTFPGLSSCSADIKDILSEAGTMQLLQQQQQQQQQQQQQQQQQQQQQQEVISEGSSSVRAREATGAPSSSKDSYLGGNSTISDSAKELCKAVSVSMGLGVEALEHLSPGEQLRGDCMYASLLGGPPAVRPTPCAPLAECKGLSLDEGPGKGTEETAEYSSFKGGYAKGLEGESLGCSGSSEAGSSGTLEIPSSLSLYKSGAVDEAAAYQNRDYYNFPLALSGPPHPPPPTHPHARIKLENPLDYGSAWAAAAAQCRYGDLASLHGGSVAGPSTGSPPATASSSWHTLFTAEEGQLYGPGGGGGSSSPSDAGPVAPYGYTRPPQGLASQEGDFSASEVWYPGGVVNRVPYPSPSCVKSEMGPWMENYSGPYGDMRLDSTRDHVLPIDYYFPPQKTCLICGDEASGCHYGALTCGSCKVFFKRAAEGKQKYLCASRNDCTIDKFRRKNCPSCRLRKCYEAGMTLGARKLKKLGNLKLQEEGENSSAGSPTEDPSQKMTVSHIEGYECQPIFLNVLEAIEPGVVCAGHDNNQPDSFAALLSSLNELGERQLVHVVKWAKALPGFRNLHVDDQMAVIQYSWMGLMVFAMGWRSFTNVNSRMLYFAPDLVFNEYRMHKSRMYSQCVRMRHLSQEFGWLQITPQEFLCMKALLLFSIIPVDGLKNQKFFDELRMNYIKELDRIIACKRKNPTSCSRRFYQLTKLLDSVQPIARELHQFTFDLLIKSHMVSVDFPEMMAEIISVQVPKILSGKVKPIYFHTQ
Protocol: Androgen Receptor of Rat's Prostate:
Male Sprague Dawley EPOS rats weighing 160 to 200 g were castrated and 24 hours after the castration, the animals were killed. Their prostates were removed, weighed and homogenized at 0° C. using a Potter teflon-glass in a TS buffered solution (Tris 10 mM, saccharose 0.25 M, HCl pH 7.4) (1 g of tissue for 5 ml of TS). The homogenate was ultracentrifuged (105,000 g for 60 minutes) at 0° C. and aliquots of the supernatant were incubated at 0° C. for an incubation time E with a constant concentration (T) of tritiated testosterone in the presence of increasing concentrations (0-1000.10^−9 M) either of cold testosterone or of the product to be tested. The concentration of bound tritiated testosterone (B) was then measured in each incubate by the adsorption on dextran carbon technique.
(§1) Calculation of the Relative Affinty of the Bond
(§2) The calculation of the Relative Affinity of the Bond (RAB) was identical for all the receptors. The following 2 curves were traced; the percentage of the bound tritiated hormone [formula]
(§3) was a function of the logarithm of the concentration of the cold reference hormone and [formula]
(§4) as a function of the logarithm of the concentration of the cold product tested.
(§5) One determined the straight line of the equation [formula]
(§6) The intersections of the straight line I50 and of the curves make it possible to evaluate the concentrations of the cold reference hormone (CH) and of the tested cold product (CX) which inhibit to an extend of 50% the binding of the tritiated hormone upon the receptor. The relative affinity of the bond (RAB) of the tested product is determined by the equation

[2] = molecular target: T2, Progestogen Receptor of Rabbit's Uterus (Oryctolagus cuniculus, UniProt P06186); assay: Relative affinity of the bond, progestogen receptor (tritiated product R displacement); assay type: binding; conditions: for Relative affinity of the bond (RAB), Progestogen, 2 H: incubation 2 H at 0° C.; for Relative affinity of the bond (RAB), Progestogen, 2 H / Relative affinity of the bond (RAB), Progestogen, 24 H: RAB=100(CH)/(CX); for Relative affinity of the bond (RAB), Progestogen, 24 H: incubation 24 H at 0° C.
T2 construct: The uteri were removed, weighed and homogenized at 0° C; from tissue; host or cells: uterine cytosol (150,000 g supernatant) of estradiol-primed immature rabbits
T2 sequence (P06186 1-930): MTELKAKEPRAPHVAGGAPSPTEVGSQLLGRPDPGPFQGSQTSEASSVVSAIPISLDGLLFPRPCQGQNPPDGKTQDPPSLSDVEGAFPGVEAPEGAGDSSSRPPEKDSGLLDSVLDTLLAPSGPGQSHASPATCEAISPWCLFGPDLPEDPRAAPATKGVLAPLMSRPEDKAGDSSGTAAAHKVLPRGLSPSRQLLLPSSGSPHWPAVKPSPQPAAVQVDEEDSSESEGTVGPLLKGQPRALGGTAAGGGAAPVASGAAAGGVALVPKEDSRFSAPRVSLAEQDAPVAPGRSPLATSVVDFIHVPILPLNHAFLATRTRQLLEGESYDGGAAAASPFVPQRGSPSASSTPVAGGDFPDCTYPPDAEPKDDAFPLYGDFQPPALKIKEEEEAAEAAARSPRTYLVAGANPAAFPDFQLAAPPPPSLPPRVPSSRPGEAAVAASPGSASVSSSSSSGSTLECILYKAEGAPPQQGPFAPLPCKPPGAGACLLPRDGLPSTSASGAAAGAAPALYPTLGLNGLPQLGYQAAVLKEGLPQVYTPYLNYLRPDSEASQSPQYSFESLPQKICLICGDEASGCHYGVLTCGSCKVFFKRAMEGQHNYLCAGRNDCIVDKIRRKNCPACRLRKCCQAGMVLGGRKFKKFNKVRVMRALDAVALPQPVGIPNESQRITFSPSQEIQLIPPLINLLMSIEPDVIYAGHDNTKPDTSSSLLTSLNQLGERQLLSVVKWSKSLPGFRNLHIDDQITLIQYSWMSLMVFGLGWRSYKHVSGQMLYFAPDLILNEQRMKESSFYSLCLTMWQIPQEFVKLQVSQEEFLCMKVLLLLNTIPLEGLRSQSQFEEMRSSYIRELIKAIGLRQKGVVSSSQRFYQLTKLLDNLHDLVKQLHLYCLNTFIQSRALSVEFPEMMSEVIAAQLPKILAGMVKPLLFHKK
Protocol: Progestogen Receptor of Rabbit's Uterus:
Impuberal rabbits weighing about 1 kg received a cutaneous application of 25 μg of estradiol and 5 days after this treatment, the animals were killed. The uteri were removed, weighed and homogenized at 0° C. using a Potter teflon-glass in a TS buffered solution (Tris 10 mM, Saccharose 0.25 M, HCl pH 7.4) (1 g of tissue for 50 ml of TS). The homogenate was then ultracentrifuged (150,000 g×90 minutes) at 0° C. and aliquots of the supernatant were incubated at 0° C. for a time t, with a constant concentration (T) of the tritiated product R (17,21-dimethyl-19-nor-Δ^4,9-pregnadiene-3,20-dione in the presence of increasing concentrations (0-2500.10^−9 M) either of cold R or of cold progesterone, or of the cold product to be tested. The concentration (B) of bound tritiated R was subsequently measured in each incubate by the technique of adsorption on dextran charcoal.
as §1, §2, §3, §4, §5, §6

CC(C)N(C)C(=O)CCCCCCCCCC[C@H]1C[C@]2(C)[C@@H](O)CC[C@H]2[C@@H]2CCc3cc(O)ccc3[C@@H]12 [Example 16, 3,17β-dihydroxy-N-methyl-N-isopropyl-11β-Δ^1,3,5(10)-estratriene undecanamide]
Relative affinity of the bond (RAB), Androgen, 0.5 H [1]: 0
Relative affinity of the bond (RAB), Androgen, 25 H [1]: 0.4
Relative affinity of the bond (RAB), Progestogen, 2 H [2]: 0.5
Relative affinity of the bond (RAB), Progestogen, 24 H [2]: 2

CC#C[C@]1(O)CC[C@H]2[C@@H]3CCC4=CC(=O)CCC4=C3[C@@H](CCCCCCCCCCC(=O)NCCCC)C[C@@]21C [Example 22, N-butyl-17β-hydroxy-3-oxo-17α-(1-propynyl)-11β-Δ^4,9-estradiene undecanamide]
Relative affinity of the bond (RAB), Androgen, 0.5 H [1]: 0.0
Relative affinity of the bond (RAB), Androgen, 25 H [1]: 0
affinity for the pregesterone receptor [2]: moderate affinity
Relative affinity of the bond (RAB), Progestogen, 2 H [2]: 12
Relative affinity of the bond (RAB), Progestogen, 24 H [2]: 21

CN(Cc1ccccc1)C(=O)CCCCCCCCCC[C@H]1C[C@]2(C)[C@@H](O)CC[C@H]2[C@@H]2CCC3=CC(=O)CCC3=C12 [Example 17, N-benzyl-17β-hydroxy-N-methyl-3-oxo-11β-Δ^4,9-estradiene undecanamide]
Relative affinity of the bond (RAB), Androgen, 0.5 H [1]: 0.12
Relative affinity of the bond (RAB), Androgen, 25 H [1]: 1.2
affinity for the pregesterone receptor [2]: moderate affinity
Relative affinity of the bond (RAB), Progestogen, 2 H [2]: 0
Relative affinity of the bond (RAB), Progestogen, 24 H [2]: 16

CCCCN(C)C(=O)CCCCCCCCCCC[C@H]1C[C@]2(C)[C@@H](O)CC[C@H]2[C@@H]2CCc3cc(O)ccc3[C@@H]12 [Example 24, N-butyl-3,17β-dihydroxy-N-methyl-11β-Δ^1,3,5(10)-estratriene dodecanamide]
Relative affinity of the bond (RAB), Androgen, 0.5 H [1]: 0
Relative affinity of the bond (RAB), Androgen, 25 H [1]: 0.4
Relative affinity of the bond (RAB), Progestogen, 2 H [2]: 0
Relative affinity of the bond (RAB), Progestogen, 24 H [2]: 0

N-butyl-3,17β-dihydroxy-N-methyl-19-nor-11β-Δ^1,3,5(10)-pregnatrien-20-yn undecanamide [Example 21]
Relative affinity of the bond (RAB), Androgen, 0.5 H [1]: 0
Relative affinity of the bond (RAB), Androgen, 25 H [1]: 0
Relative affinity of the bond (RAB), Progestogen, 2 H [2]: 0.3
Relative affinity of the bond (RAB), Progestogen, 24 H [2]: 1

CN(C)CCN(C)C(=O)CCCCCCCCCC[C@H]1C[C@]2(C)[C@@H](O)CC[C@H]2[C@@H]2CCC3=CC(=O)CCC3=C12 [Example 19, N-[2-(dimethylamino)-ethyl]-17β-hydroxy-N-methyl-3-oxo-11β-Δ^4,9-estradiene undecanamide]
affinity for the androgen receptor [1]: moderate affinity
Relative affinity of the bond (RAB), Androgen, 0.5 H [1]: 11
Relative affinity of the bond (RAB), Androgen, 25 H [1]: 11
Relative affinity of the bond (RAB), Progestogen, 2 H [2]: 6
Relative affinity of the bond (RAB), Progestogen, 24 H [2]: 7

CCCCN(C)C(=O)CCCCCCCCCC[C@H]1C[C@]2(C)[C@@H](O)CC[C@H]2[C@@H]2CCc3cc(O)ccc3[C@@H]12 [Example 13, N-Butyl-3,17β-Dihydroxy-N-Methyl-11β-Δ^1,3,5(10)-Estratriene-Undecanamide]
Relative affinity of the bond (RAB), Androgen, 0.5 H [1]: 0
Relative affinity of the bond (RAB), Androgen, 25 H [1]: 0.12
Relative affinity of the bond (RAB), Progestogen, 2 H [2]: 0.0
Relative affinity of the bond (RAB), Progestogen, 24 H [2]: 1.8
